{
  "source": "paper PMC5885780",
  "about": "“Sub-nanosecond tryptophan radical deprotonation mediated by a protein-bound water cluster in class II DNA photolyases” (Chemical Science, 2017)",
  "assay_in_all_cases": "UV/vis and transient absorption of co-purified protein-bound FAD",
  "format_in_all_cases": "binding",
  "details_in_all_cases": "pH 8.0, 10 mM Tris-HCl, 100 mM NaCl, 10% glycerol, 7 °C; oxidized FAD; free FAD removed by size-exclusion column",
  "key": {"[1]": {"target": "T1, MmCPDII (class II CPD photolyase) (Methanosarcina mazei, UniProt Q8PYK9, W388F)", "T1 construct": "gene MM_0852; full-length from pET-28a-MmCPDII, E. coli BL21-Gold(DE3), NiNTA and SEC"}, "[2]": {"target": "T2, MmCPDII (class II CPD photolyase) (Methanosarcina mazei, UniProt Q8PYK9, Y345F)", "T2 construct": "gene MM_0852; full-length from pET-28a-MmCPDII, E. coli BL21-Gold(DE3), NiNTA and SEC"}, "[3]": {"target": "T3, MmCPDII (class II CPD photolyase) (Methanosarcina mazei, UniProt Q8PYK9)", "T3 construct": "gene MM_0852; full-length from pET-28a-MmCPDII, E. coli BL21-Gold(DE3), NiNTA and SEC"}, "[4]": {"target": "T4, MmCPDII (class II CPD photolyase) (Methanosarcina mazei, UniProt Q8PYK9, E387Q)", "T4 construct": "gene MM_0852; full-length from pET-28a-MmCPDII, E. coli BL21-Gold(DE3), NiNTA and SEC"}},
  "data": [
    {"smiles": "Cc1cc2nc3c(=O)[nH]c(=O)nc-3n(C[C@H](O)[C@H](O)[C@H](O)COP(=O)(O)OP(=O)(O)OC[C@H]3O[C@@H](n4cnc5c(N)ncnc54)[C@H](O)[C@@H]3O)c2cc1C", "note": "[FAD]", "values": [
      {"measurement": "UV/vis and transient absorption of co-purified protein-bound FAD", "setting": "[1]", "result": "Isolated MmCPDII photolyase (WT, as well as all mutants studied here) contains a fully oxidized FAD"},
      {"measurement": "UV/vis and transient absorption of co-purified protein-bound FAD", "setting": "[2]", "result": "Isolated MmCPDII photolyase (WT, as well as all mutants studied here) contains a fully oxidized FAD"},
      {"measurement": "UV/vis and transient absorption of co-purified protein-bound FAD", "setting": "[3]", "result": "Isolated MmCPDII photolyase (WT, as well as all mutants studied here) contains a fully oxidized FAD"},
      {"measurement": "UV/vis and transient absorption of co-purified protein-bound FAD", "setting": "[4]", "result": "Isolated MmCPDII photolyase (WT, as well as all mutants studied here) contains a fully oxidized FAD"}
    ]}
  ]
}
